Reference: patent publication US4241069A, “3-Methylene flavanones and 3-methylene chromanones” (Miles Laboratories, Inc., priority 1979, dated 1980)
≈ marks a conversion by molar mass, not a printed value.

Assays:
A. fumigatus NRRL 163 = assay: MIC, agar incorporation method; format: cell-based; details: Aspergillus fumigatus, NRRL163, NRRL 163; 32° C., 48-72 hours; read-out: Minimal Inhibitory Concentration
Procedure: (§1) The compounds of the present invention were tested for their ability to inhibit the growth of microorganisms by in vitro tests. Generally the in vitro tests involve growing representative microorganisms under conditions favorable to such growth and measuring the effectiveness of one or more compounds in inhibiting or destroying the growth of the microorganisms. The microorganisms used include representative bacteria, fungi and yeasts.
(§2) A representative selection of the test microorganisms were cultured in a nutrient broth, such as, for example, Eugon, commercially available from Difco Laboratories, Detroit, Michigan. Bacteria and Candida species were cultured for 24 hours at 32°-37° C. and fungi were cultured for approximately one week at 32° C. Inocula were prepared by suspending the growth or spores from a slant culture in sufficient sterile normal (0.9 percent) saline or Eugon broth, to yield cell or spore concentrations of 1,000,000 cells per milliliter. Anaerobic bacteria were cultured for 48-72 hours at 32°-37° C. in a thioglycollate containing medium, for example, Fluid Thioglycollate medium or NIH thioglycollate broth, commercially available from Difco Laboratories.
(§3) The compounds of the present invention were tested for activity against bacteria, yeasts and fungi by the agar incorporation method described below. MA 1347, 3-(dimethylaminomethyl)flavanone (disclosed in U.S. Pat. No. 3,753,985) was used as a comparative standard along with controls for each solvent system used.
(§4) A series of agar plates containing two-fold dilutions of each compound to be tested, ranging in concentration from 100 to 3.1 mcg/ml of agar medium was prepared. Aliquots of each concentration (100, 50, 25, 12.5, 6.2, and 3.1) prepared in N,N-dimethylformamide or 50 percent aqueous DMF were added to liquid Eugon agar at 48° C. (one part test solution to 100 parts agar). In some cases, tests with further dilutions to 0.125 mcg/ml were conducted. The agar medium, containing the 3-methylene flavanone or chromanone compound to be tested, was then dispensed into petri dishes and allowed to solidify. The solidified plates were kept overnight at room temperatures to dry the surface of the agar.
(§5) The agar plates were then inoculated with a drop of the standardized cell or spore suspension. Inoculated plates were incubated at 32° C. The inhibition end-point or minimum inhibitory concentration (MIC) shown in Table D represent the lowest concentration of test compound which inhibited the growth of the microorganism. Visual determination of growth inhibition was used. Bacteria and yeast end-points were determined after 24 hours incubation; molds, dermatophytes and anaerobes after 48-72 hours incubation. MIC values shown as ranges represent the extremes found in repeat assays. Virtually all such values were written plus or minus one dilution, the accepted variation of a two-fold dilution assay.

C. albicans NRRL Y-477 = assay: MIC, agar incorporation method; format: cell-based; details: Candida albicans, NRRLY477, 32° C., 24 hours, read-out: Minimal Inhibitory Concentration
Procedure: as §1, §2, §3, §4, §5

C. guillermondii VM 42 = assay: MIC, agar incorporation method; format: cell-based; details: 32° C., 24 hours; read-out: Minimal Inhibitory Concentration
Procedure: as §1, §2, §3, §4, §5

C. krusei VM 29B = assay: MIC, agar incorporation method; format: cell-based; details: Pichia kudriavzevii, VM29B; 32° C., 24 hours; read-out: Minimal Inhibitory Concentration
Procedure: as §1, §2, §3, §4, §5

C. tropicalis NRRL Y1410 = assay: MIC, agar incorporation method; format: cell-based; details: Candida tropicalis, NRRLY1410; 32° C., 24 hours; read-out: Minimal Inhibitory Concentration
Procedure: as §1, §2, §3, §4, §5

[1] = system: Candida albicans ATCC 10231; assay: MIC, agar incorporation method; format: cell-based; details: ATCC10231, C. albicans ATCC 10231, 32° C., 24 hours, read-out: Minimal Inhibitory Concentration
Procedure: as §1, §2, §3, §4, §5

[2] = system: Escherichia coli ATCC 8739; assay: MIC, agar incorporation method; format: cell-based; details: ATCC8739, 32° C., 24 hours, read-out: Minimal Inhibitory Concentration
Procedure: as §1, §2, §3, §4, §5

[3] = system: Microsporum gypseum ATCC 14683; assay: MIC, agar incorporation method; format: cell-based; details: Nannizzia gypsea, ATCC14683, 32° C., 48-72 hours; read-out: Minimal Inhibitory Concentration
Procedure: as §1, §2, §3, §4, §5

[4] = system: Pseudomonas aeruginosa ATCC 14502; assay: MIC, agar incorporation method; format: cell-based; details: ATCC14502, 32° C., 24 hours, read-out: Minimal Inhibitory Concentration
Procedure: as §1, §2, §3, §4, §5

[5] = system: Staphylococcus aureus ATCC 6538; assay: MIC, agar incorporation method; format: cell-based; details: Staphylococcus aureus, ATCC6538; S. aureus ATCC 6538; 32° C., 24 hours; read-out: Minimal Inhibitory Concentration
Procedure: as §1, §2, §3, §4, §5

[6] = system: Streptococcus faecalis ATCC 10541; assay: MIC, agar incorporation method; format: cell-based; details: Enterococcus faecalis, ATCC10541; 32° C., 24 hours; read-out: Minimal Inhibitory Concentration
Procedure: as §1, §2, §3, §4, §5

T. mentagrophytes CDC = assay: MIC, agar incorporation method; format: cell-based; details: Trichophyton mentagrophytes, 32° C., 48-72 hours, read-out: Minimal Inhibitory Concentration
Procedure: as §1, §2, §3, §4, §5

T. mentagrophytes TM-2 = assay: MIC, agar incorporation method; format: cell-based; details: Trichophyton mentagrophytes, TM2, 32° C., 48-72 hours, read-out: Minimal Inhibitory Concentration
Procedure: as §1, §2, §3, §4, §5

T. tonsurans ATCC 10217 = assay: MIC, agar incorporation method; format: cell-based; details: Trichophyton tonsurans, ATCC10217; 32° C., 48-72 hours; read-out: Minimal Inhibitory Concentration
Procedure: as §1, §2, §3, §4, §5

[7] = system: Trichophyton mentagrophytes ATCC 4807; assay: MIC, agar incorporation method; format: cell-based; details: ATCC4807, 32° C., 48-72 hours, read-out: Minimal Inhibitory Concentration
Procedure: as §1, §2, §3, §4, §5

S. aureus NRRL B2747 [8] = assay: MIC, agar incorporation method; format: cell-based, Staphylococcus aureus; details: Staphylococcus aureus, NRRLB2747, 32° C., 24 hours, read-out: Minimal Inhibitory Concentration
Procedure: as §1, §2, §3, §4, §5

[9] = system: Bacteriodides fragilis ATCC 8482; assay: MIC, agar incorporation method, anaerobic; format: cell-based; details: 48 hours at 35° C., GasPak Anaerobic Jar, read-out: Minimal Inhibitory Concentration
Procedure: as §1, §2, §3, §4, §5
(§6) *Anaerobic: 48 hours incubation at 35° C. GasPak Anaerobic Jar

[10] = system: Clostridium sporogenes ATCC 11437; assay: MIC, agar incorporation method, anaerobic; format: cell-based; details: ATCC11437, 48 hours at 35° C., GasPak Anaerobic Jar, read-out: Minimal Inhibitory Concentration
Procedure: as §1, §2, §3, §4, §5, §6

[11] = system: Propionobacterium acnes ATCC 6919; assay: MIC, agar incorporation method, anaerobic; format: cell-based; details: 48 hours at 35° C., GasPak Anaerobic Jar, read-out: Minimal Inhibitory Concentration
Procedure: as §1, §2, §3, §4, §5, §6

S. aureus NRRL B2747 [12] = assay: MIC, agar incorporation method, anaerobic; format: cell-based; details: Staphylococcus aureus, NRRLB2747, 48 hours at 35° C., GasPak Anaerobic Jar, read-out: Minimal Inhibitory Concentration
Procedure: as §1, §2, §3, §4, §5, §6

[13] = system: Aspergillus niger ATCC 16404; assay: MIC, agar incorporation method; format: cell-based; details: ATCC16404, 32° C., 48-72 hours, read-out: Minimal Inhibitory Concentration
Procedure: as §1, §2, §3, §4, §5

[14] = system: Sarcina subflava ATCC 7468; assay: MIC, agar incorporation method; format: cell-based; details: ATCC7468, 32° C., 24 hours, read-out: Minimal Inhibitory Concentration
Procedure: as §1, §2, §3, §4, §5

T. rubrum ATCC 10218 = assay: MIC, agar incorporation method; format: cell-based; details: Trichophyton rubrum, ATCC10218; 32° C., 48-72 hours; read-out: Minimal Inhibitory Concentration
Procedure: as §1, §2, §3, §4, §5

A. fumigatus NRRL 165 = assay: MIC, agar incorporation method; format: cell-based; details: Aspergillus fumigatus, NRRL165, 32° C., 48-72 hours, read-out: Minimal Inhibitory Concentration
Procedure: as §1, §2, §3, §4, §5

Compound	MIC (A. fumigatus NRRL 163) [µg/mL]	MIC (C. albicans NRRL Y-477) [µg/mL]	MIC (C. guillermondii VM 42) [µg/mL]	MIC (C. krusei VM 29B) [µg/mL]	MIC (C. tropicalis NRRL Y1410) [µg/mL]	MIC [1] [µg/mL]	MIC [2] [µg/mL]	MIC [3] [µg/mL]	MIC [4] [µg/mL]	MIC [5] [µg/mL]	MIC [6] [µg/mL]	MIC (T. mentagrophytes CDC) [µg/mL]	MIC (T. mentagrophytes TM-2) [µg/mL]	MIC (T. tonsurans ATCC 10217) [µg/mL]	MIC [7] [µg/mL]	MIC (S. aureus NRRL B2747 [8]) [µg/mL]	MIC [9] [µg/mL]	MIC [10] [µg/mL]	MIC [11] [µg/mL]	MIC (S. aureus NRRL B2747 [12]) [µg/mL]	other results
C=C1C(=O)c2ccccc2OC1c1ccccc1 (stereo not drawn) [Ex. 1, 3-methylene flavanone]	6.2 (≈ 26.2 µM)	50 (≈ 212 µM)	100 (≈ 423 µM)	50 (≈ 212 µM)	100 (≈ 423 µM)	50 (≈ 212 µM)	> 100	6.2 to 12.5 (≈ 26.2 to 52.9 µM)	> 100	6.2 (≈ 26.2 µM)	100 (≈ 423 µM)	12.5 (≈ 52.9 µM)	12.5 (≈ 52.9 µM)	6.2 (≈ 26.2 µM)	12.5 (≈ 52.9 µM)	12.5 (≈ 52.9 µM)	1.56 (≈ 6.6 µM)	12.5 (≈ 52.9 µM)	12.5 (≈ 52.9 µM)	25 (≈ 106 µM)	–
C=C1C(=O)c2ccccc2OC1c1ccc(Cl)cc1Cl (stereo not drawn) [Ex. 4, 2',4'-dichloro-3-methylene flavanone]	50 (≈ 164 µM)	25 (≈ 81.9 µM)	50 (≈ 164 µM)	25 to 50 (≈ 81.9 to 164 µM)	50 (≈ 164 µM)	25 (≈ 81.9 µM)	> 100	6.2 to 12.5 (≈ 20.3 to 41 µM)	> 100	1.56 (≈ 5.11 µM)	25 to 50 (≈ 81.9 to 164 µM)	12.5 to 25 (≈ 41 to 81.9 µM)	12.5 to 25 (≈ 41 to 81.9 µM)	6.2 (≈ 20.3 µM)	12.5 (≈ 41 µM)	1.56 (≈ 5.11 µM)	3.1 (≈ 10.2 µM)	≤ 0.78	3.1 (≈ 10.2 µM)	6.2 (≈ 20.3 µM)	MIC [13]: 100 µg/mL (≈ 328 µM); MIC [14]: 3.1 µg/mL (≈ 10.2 µM); MIC (T. rubrum ATCC 10218): 12.5 µg/mL (≈ 41 µM)
C=C1C(=O)c2cc(Br)ccc2OC1c1ccc(Br)cc1 (stereo not drawn) [Ex. 17, 4',6-dibromo-3-methylene flavanone]	> 100	100 (≈ 254 µM)	> 100	100 (≈ 254 µM)	> 100	100 (≈ 254 µM)	> 100	50 (≈ 127 µM)	> 100	6.2 (≈ 15.7 µM)	> 100	50 (≈ 127 µM)	25 (≈ 63.4 µM)	–	12.5 (≈ 31.7 µM)	12.5 (≈ 31.7 µM)	–	–	–	–	MIC (A. fumigatus NRRL 165): > 100 µg/mL; MIC [13]: > 100 µg/mL; MIC (T. rubrum ATCC 10218): 25 µg/mL (≈ 63.4 µM)
C=C1C(=O)c2ccccc2OC1(c1ccccc1)c1cccs1 (stereo not drawn) [Ex. 21, 3-Methylene-2-(2-thienyl) flavanone]	100 (≈ 314 µM)	> 100	> 100	> 100	> 100	> 100	> 100	6.2 (≈ 19.5 µM)	> 100	0.5 (≈ 1.57 µM)	1 (≈ 3.14 µM)	12.5 (≈ 39.3 µM)	12.5 (≈ 39.3 µM)	6.2 (≈ 19.5 µM)	12.5 (≈ 39.3 µM)	0.5 (≈ 1.57 µM)	0.25 (≈ 0.785 µM)	0.5 (≈ 1.57 µM)	1 (≈ 3.14 µM)	1.56 (≈ 4.9 µM)	MIC [13]: > 100 µg/mL; MIC [14]: 1.56 µg/mL (≈ 4.9 µM)
C=C1C(=O)c2ccccc2OC1(c1ccccc1)c1ccncc1 (stereo not drawn) [Ex. 22, 3-Methylene-2-(4-pyridyl) flavanone]	25 (≈ 79.8 µM)	100 (≈ 319 µM)	> 100	100 (≈ 319 µM)	> 100	100 (≈ 319 µM)	> 100	12.5 (≈ 39.9 µM)	> 100	0.78 (≈ 2.49 µM)	3.1 (≈ 9.89 µM)	25 (≈ 79.8 µM)	12.5 (≈ 39.9 µM)	6.2 (≈ 19.8 µM)	12.5 (≈ 39.9 µM)	0.78 (≈ 2.49 µM)	0.25 (≈ 0.798 µM)	0.5 (≈ 1.6 µM)	1 (≈ 3.19 µM)	1 (≈ 3.19 µM)	MIC [13]: > 100 µg/mL; MIC [14]: 3.1 µg/mL (≈ 9.89 µM)
